Test results taken from patent US7417162B2, “Oily ingredient for cosmetic preparation and cosmetic preparation” (Kyowa Yuka Co., Ltd., priority 2001, dated 2008).

Assay: Test for solubility of a UV-A absorber in the oil
Assay type: physicochemical
Details: for Solubility of a UV-A absorber: UV-A absorber dissolved to saturation in the compound
Experimental: Then, absorbance (A) of a peak observed near 350 nm was measured. Solubility was figured out from a value calculated by the following equation and a weight of a sample prepared. The measurement temperatures are at room temperature ([…]) and 50° C.

CCC(CC(CC)C(=O)OC)C(=O)OC (stereo not drawn) [Compound 3, dimethyl 2,4-diethylglutarate]
Solubility of a UV-A absorber (50° C.): 40.7 g/100 g
Solubility of the UV-A absorber, in words (in comparison to comparative compound 1): excellent
Solubility of a UV-A absorber (room temperature (25° C.)): 23.1 g/100 g
